{"source": "patent US4603142A", "about": "“Cholesterol lowering method of use” (Wisconsin Alumni Research Foundation, priority 1984, dated 1986)", "key": {"Fatty Acid Synthetase [1]": {"system": "Fatty Acid Synthetase", "test": "Hepatic fatty acid synthetase activity in 3-week-old broiler male chickens fed supplemented corn diet", "format": "in vivo, chicken", "details": "liver; for Fatty Acid Synthetase: mean ± SD, N = 9", "source_text": "(§1) These responses were attributed to the presence in the small grains of relatively high concentrations of beta-D-glucans and pentosans. A long-standing interest in lipid metabolism prompted us to examine certain lipogenic and cholesterolgenic enzymes in the tissues of these birds. Methods used for handling blood samples, preparing subcellular fractions of liver and assay procedures for beta-hydroxy-beta-methylglutaryl coenzyme A (HMG Co-A) reductase, fatty acid synthetase (FAS), plasma cholesterol and triglycerides and the statistical treatment of the data have been described [Qureshi AA et al. (1980): Regulation of lipid metabolism in chicken livers by dietary cereals, J Nutr 110:388-393].\nFor large scale preparation of these compounds, 10 grams of the petroleum ether soluble fraction of HPBF were dissolved in 10 ml petroleum ether and applied to a 90×3.5 cm silicic acid column (Bio-Silica, 100-200 mesh). The column was washed with 2,500 ml petroleum ether followed by stepwise elution with increasing amounts of ether in petroleum ether. Fraction 8 of the column corresponded to HPLC fraction 5. A concentration-dependent suppression of HMG Co-A reductase activity and enhancement of FAS activity was noted within this range. Serum total and LDL cholesterol levels also fell in a dose-dependent response. […] In a companion experiment, using the same control birds, the effect of cholesterol inhibitor I at 5 ppm is compared to the effect of the petroleum ether solubles of HPBF at 20% equivalent on weight gain, HMG Co-A reductase and FAS activities, serum cholesterol and serum triglyceride levels (Table 2). […] Serum triglyceride levels reflected the influence of the diet on FAS activity. […] Cholesterol inhibitor I was a more powerful suppressor of LDL cholesterol (Table 2).\n^1 Feeding period was 3 weeks; Time of killing was 0800; Data\nexpressed as mean ± SD; N = 9 chickens per group; HMGCoA reductase =\n^3 nmoles of NADPH oxidized per minute per mg of cytosolic protein."}, "Fatty Acid Synthetase [2]": {"system": "Fatty Acid Synthetase", "test": "Hepatic fatty acid synthetase activity in 13-week-old WLH male chickens", "format": "in vivo, chicken", "details": "20 ppm in corn diet, fed four weeks, liver", "source_text": "as §1\n(§2) Cholesterol inhibitor I was re-chromatographed by HPLC and the UV absorption spectrum obtained. Maximum absorption occurred at 292 nm. This purified fraction was used for high resolution mass spectrometric analysis. Several scans were made using ionization temperatures from 90-180 degrees Centigrade to increase the possibility of detecting impurities. […] The results shown on Table 3 confirm those previously recorded for petroleum ether solubles of HPBF and cholestrol inhibitor I. In a final experiment, the effects of cholestrol inhibitor I and lemon grass oil on hepatocyte HMG Co-A reductase and FAS activities were tested. […]\n(§3) expressed as mean ± SD; N = 8 chickens per group; HMGCoA reductase = […]"}, "FAS": {"target": "T1, FAS (Gallus gallus, UniProt P12276)", "T1 construct": "activity in isolated hepatocytes; endogenous in cells; host or cells: isolated hepatocytes", "T1 sequence (P12276 2-2512 limits assumed)": "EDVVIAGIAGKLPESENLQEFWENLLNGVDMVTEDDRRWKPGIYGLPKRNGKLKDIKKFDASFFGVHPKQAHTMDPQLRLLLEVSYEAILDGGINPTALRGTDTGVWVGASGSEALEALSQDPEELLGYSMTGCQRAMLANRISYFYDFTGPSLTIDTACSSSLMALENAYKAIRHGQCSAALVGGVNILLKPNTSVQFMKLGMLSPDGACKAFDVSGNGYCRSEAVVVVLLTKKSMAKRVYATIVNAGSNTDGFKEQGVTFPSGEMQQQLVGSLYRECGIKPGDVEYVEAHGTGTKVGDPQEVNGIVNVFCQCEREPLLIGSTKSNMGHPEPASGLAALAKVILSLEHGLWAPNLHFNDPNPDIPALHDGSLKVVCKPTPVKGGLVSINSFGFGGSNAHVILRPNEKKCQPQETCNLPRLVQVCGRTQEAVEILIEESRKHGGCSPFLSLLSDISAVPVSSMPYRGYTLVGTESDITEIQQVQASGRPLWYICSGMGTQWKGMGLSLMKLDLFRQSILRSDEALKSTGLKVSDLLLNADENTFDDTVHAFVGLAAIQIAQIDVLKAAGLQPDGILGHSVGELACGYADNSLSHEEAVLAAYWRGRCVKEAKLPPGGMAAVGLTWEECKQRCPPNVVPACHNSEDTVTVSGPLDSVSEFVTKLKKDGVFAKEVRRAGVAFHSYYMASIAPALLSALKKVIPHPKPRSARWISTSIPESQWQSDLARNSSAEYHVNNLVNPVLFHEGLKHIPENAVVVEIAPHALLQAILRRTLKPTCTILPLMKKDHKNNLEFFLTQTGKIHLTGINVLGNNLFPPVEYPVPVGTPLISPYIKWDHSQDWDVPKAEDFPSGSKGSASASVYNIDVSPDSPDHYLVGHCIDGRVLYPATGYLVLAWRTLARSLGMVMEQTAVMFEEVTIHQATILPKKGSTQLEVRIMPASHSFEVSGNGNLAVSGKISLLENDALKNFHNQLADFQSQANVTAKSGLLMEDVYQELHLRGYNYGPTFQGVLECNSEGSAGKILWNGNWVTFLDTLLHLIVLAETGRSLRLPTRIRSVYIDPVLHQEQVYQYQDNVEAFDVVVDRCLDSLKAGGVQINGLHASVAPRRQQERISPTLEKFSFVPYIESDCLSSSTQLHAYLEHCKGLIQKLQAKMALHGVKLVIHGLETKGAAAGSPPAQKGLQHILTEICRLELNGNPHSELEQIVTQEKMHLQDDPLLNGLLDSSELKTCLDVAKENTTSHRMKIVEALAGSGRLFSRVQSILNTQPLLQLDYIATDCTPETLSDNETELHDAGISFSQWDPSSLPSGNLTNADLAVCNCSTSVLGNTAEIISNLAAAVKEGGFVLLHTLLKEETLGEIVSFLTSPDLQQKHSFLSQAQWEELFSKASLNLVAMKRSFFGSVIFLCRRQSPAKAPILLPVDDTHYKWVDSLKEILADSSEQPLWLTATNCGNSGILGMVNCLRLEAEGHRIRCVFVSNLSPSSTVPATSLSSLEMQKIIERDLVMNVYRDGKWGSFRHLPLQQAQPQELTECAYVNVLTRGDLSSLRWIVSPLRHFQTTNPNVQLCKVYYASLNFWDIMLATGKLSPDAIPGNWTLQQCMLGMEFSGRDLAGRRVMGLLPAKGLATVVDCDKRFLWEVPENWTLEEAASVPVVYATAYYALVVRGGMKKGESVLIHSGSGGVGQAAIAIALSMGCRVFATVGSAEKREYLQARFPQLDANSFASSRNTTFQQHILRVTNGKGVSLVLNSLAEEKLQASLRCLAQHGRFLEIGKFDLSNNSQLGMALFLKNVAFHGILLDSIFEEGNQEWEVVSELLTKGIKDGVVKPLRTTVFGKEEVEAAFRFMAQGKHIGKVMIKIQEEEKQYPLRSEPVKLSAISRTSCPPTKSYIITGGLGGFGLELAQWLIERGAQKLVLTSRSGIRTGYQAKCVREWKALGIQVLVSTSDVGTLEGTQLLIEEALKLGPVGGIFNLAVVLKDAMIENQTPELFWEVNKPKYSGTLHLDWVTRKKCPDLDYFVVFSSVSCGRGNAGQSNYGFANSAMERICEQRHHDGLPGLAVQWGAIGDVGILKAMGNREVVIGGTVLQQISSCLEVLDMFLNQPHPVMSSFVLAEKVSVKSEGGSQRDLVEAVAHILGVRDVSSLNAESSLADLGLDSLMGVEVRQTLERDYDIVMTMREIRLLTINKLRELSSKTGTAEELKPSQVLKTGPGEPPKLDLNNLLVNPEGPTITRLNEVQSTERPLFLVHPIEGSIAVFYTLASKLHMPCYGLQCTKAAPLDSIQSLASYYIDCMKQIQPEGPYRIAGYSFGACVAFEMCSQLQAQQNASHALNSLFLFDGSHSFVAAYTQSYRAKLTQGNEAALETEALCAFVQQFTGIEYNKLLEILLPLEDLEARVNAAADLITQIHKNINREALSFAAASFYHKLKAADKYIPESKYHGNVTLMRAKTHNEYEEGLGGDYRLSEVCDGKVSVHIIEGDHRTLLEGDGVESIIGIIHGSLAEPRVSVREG", "test": "HPLC fractions checked in vitro for effect on FAS in isolated hepatocytes", "format": "cell-based", "details": "HPLC fractions of petroleum ether solubles"}, "[3]": {"test": "Animal tests of pure d-α-tocotrienol: blood cholesterol and side effects", "format": "in vivo", "details": "test animals", "source_text": "We have isolated pure d-α-tocotrienol from barley. […] In addition to being extractable from natural sources, including barley and lemon grass oil, d-α-tocotrienol can be synthesized using available technology similar to that which has been used in the synthesis of Vitamin E and more recently as described by S. Urano et al. (J. Chem. Pharm. Bull. 31, 4341 (1983))."}, "HMG-CoA reductase": {"target": "T2, HMG-CoA reductase (Homo sapiens, UniProt P04035)", "T2 sequence (P04035 1-888)": "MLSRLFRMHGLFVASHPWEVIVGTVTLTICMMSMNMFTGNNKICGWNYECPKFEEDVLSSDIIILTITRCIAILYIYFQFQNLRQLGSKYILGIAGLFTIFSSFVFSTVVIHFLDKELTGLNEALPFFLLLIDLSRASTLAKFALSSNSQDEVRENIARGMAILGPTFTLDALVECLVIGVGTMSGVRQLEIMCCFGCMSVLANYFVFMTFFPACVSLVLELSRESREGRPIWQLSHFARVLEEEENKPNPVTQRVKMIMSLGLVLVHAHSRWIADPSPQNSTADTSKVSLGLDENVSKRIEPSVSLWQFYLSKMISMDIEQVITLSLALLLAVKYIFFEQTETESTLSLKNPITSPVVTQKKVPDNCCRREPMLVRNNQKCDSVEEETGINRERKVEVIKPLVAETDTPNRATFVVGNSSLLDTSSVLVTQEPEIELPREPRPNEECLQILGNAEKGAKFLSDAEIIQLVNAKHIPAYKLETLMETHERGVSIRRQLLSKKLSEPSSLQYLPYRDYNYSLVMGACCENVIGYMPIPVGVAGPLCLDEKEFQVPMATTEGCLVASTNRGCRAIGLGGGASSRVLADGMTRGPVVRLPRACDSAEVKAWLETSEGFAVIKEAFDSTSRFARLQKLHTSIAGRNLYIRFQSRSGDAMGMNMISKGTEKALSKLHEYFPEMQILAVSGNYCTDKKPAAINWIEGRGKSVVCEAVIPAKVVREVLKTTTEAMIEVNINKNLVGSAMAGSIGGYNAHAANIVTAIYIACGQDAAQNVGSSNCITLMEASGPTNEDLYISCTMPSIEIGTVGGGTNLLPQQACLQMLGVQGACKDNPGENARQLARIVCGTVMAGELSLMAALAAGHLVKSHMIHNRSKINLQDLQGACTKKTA", "test": "Hepatic HMG-CoA reductase activity in 13-week-old WLH male chickens", "format": "in vivo, chicken", "design": "preparing subcellular fractions of liver and assay procedures for beta-hydroxy-beta-methylglutaryl coenzyme A (HMG Co-A) reductase; from tissue; host or cells: chicken liver (microsomal fraction)", "details": "20 ppm in corn diet, fed four weeks, liver", "source_text": "as §1, §2, §3"}, "[4]": {"details": "2.5 ppm in corn diet, fed 3 weeks"}, "[5]": {"details": "5.0 ppm in corn diet, fed 3 weeks"}, "[6]": {"details": "10.0 ppm in corn diet, fed 3 weeks"}, "[7]": {"details": "15.0 ppm in corn diet, fed 3 weeks"}, "[8]": {"details": "20.0 ppm in corn diet, fed 3 weeks"}}}
{"molecule": "CC(C)=CCC/C(C)=C/CC/C(C)=C/CC[C@]1(C)CCc2c(C)c(O)c(C)c(C)c2O1", "note": "[Cholesterol inhibitor I, 2,5,7,8-tetramethyl-2 (4,8, 12-trimethyltrideca-3,7, 11-trienyl)chroman-6-ol]", "values": [{"measurement": "Fatty Acid Synthetase, percentage of control", "setting": "Fatty Acid Synthetase [1]; [4]", "result": "118 Percentage of respective contr"}, {"measurement": "Fatty Acid Synthetase", "setting": "Fatty Acid Synthetase [1]; [4]", "result": "190 ± 12 nmoles of NADPH oxidized per m"}, {"measurement": "Fatty Acid Synthetase, percentage of control", "setting": "Fatty Acid Synthetase [1]; [5]", "result": "120 Percentage of respective contr"}, {"measurement": "Fatty Acid Synthetase", "setting": "Fatty Acid Synthetase [1]; [5]", "result": "202 ± 10 nmoles of NADPH oxidized per m"}, {"measurement": "Fatty Acid Synthetase, percentage of control", "setting": "Fatty Acid Synthetase [1]; [6]", "result": "125 Percentage of respective contr"}, {"measurement": "Fatty Acid Synthetase", "setting": "Fatty Acid Synthetase [1]; [6]", "result": "210 ± 15 nmoles of NADPH oxidized per m"}, {"measurement": "Fatty Acid Synthetase, percentage of control", "setting": "Fatty Acid Synthetase [1]; [7]", "result": "130 Percentage of respective contr"}, {"measurement": "Fatty Acid Synthetase", "setting": "Fatty Acid Synthetase [1]; [7]", "result": "218 ± 17 nmoles of NADPH oxidized per m"}, {"measurement": "Fatty Acid Synthetase, percentage of control", "setting": "Fatty Acid Synthetase [1]; [8]", "result": "140 Percentage of respective contr"}, {"measurement": "Fatty Acid Synthetase", "setting": "Fatty Acid Synthetase [1]; [8]", "result": "235 ± 18 nmoles of NADPH oxidized per m"}, {"measurement": "Fatty Acid Synthetase", "setting": "Fatty Acid Synthetase [1]; corn diet + 5 ppm (Table 2)", "result": "215 ± 18 nmoles of NADPH oxidized per m"}, {"measurement": "Fatty Acid Synthetase, percentage of control", "setting": "Fatty Acid Synthetase [2]", "result": "111 Percentage of respective contr"}, {"measurement": "Fatty Acid Synthetase", "setting": "Fatty Acid Synthetase [2]; mean ± SD, N = 8", "result": "292 ± 9 nmoles of NADPH oxidized per m"}, {"measurement": "Effect on activities of FAS", "setting": "FAS", "result": "significant increase"}, {"measurement": "Effect on high density lipoprotein cholesterol levels", "setting": "[3]", "result": "no significant effect"}, {"measurement": "Side effects", "setting": "[3]", "result": "no undesirable side effects"}, {"measurement": "Effect on total and low density lipoprotein cholesterol", "setting": "[3]; even in low concentrations", "result": "lower concentrations of total and low density lipoprotein cholesterol"}, {"measurement": "HMG-CoA Reductase, percentage of control", "setting": "HMG-CoA reductase", "result": "63 Percentage of respective contr"}, {"measurement": "HMG-CoA Reductase", "setting": "HMG-CoA reductase; mean ± SD, N = 8", "result": "305 ± 18 pmoles of mevalonic acid synth"}]}
